Source: patent US20260041741A1, “CD39 AND CD73 FOR THE THERAPY OF HEMORRHAGIC SHOCK” (The Trustees of Columbia University in the City of New York, priority 2023, published 2026)

B1: rhCD73: recombinant human (rh) CD73 from Daresbury Proteins; CD73 mimic (protein, UniProt P21589 27-549, looked up)
5'-nucleotidase: WELTILHTNDVHSRLEQTSEDSSKCVNASRCMGGVARLFTKVQQIRRAEPNVLLLDAGDQYQGTIWFTVYKGAEVAHFMNALRYDAMALGNHEFDNGVEGLIEPLLKEAKFPILSANIKAKGPLASQISGLYLPYKVLPVGDEVVGIVGYTSKETPFLSNPGTNLVFEDEITALQPEVDKLKTLNVNKIIALGHSGFEMDKLIAQKVRGVDVVVGGHSNTFLYTGNPPSKEVPAGKYPFIVTSDDGRKVPVVQAYAFGKYLGYLKIEFDERGNVISSHGNPILLNSSIPEDPSIKADINKWRIKLDNYSTQELGKTIVYLDGSSQSCRFRECNMGNLICDAMINNNLRHTDEMFWNHVSMCILNGGGIRSPIDERNNGTITWENLAAVLPFGGTFDLVQLKGSTLKKAFEHSVHRYGQSTGEFLQVGGIHVVYDLSRKPGDRVVKLDVLCTKCRVPSYDPLKMDEVYKVILPNFLANGGDGFQMIKDELLRHDSGDQDINVVSTYISKMKVIYPAVEGRIKFS

Experiments:
rat model of T/HS = conditions: posttreatment; cited from earlier work
[1] = test system: hypoxic CD73 deficient mice; conditions: exogenous administration; cited from earlier work
T/HS mice [2] = test: Pulmonary neutrophil sequestration (lung MPO activity) after trauma/hemorrhagic shock; format: in vivo; conditions: for neutrophil infiltration (lung MPO activity): NECA pretreatment 0.0025 mg/kg; for neutrophil sequestration / infiltration in lung (MPO activity): wild-type T/HS mice vs vehicle, i.p. pretreatment 30 min before shock, POM1 5 mg/kg, apyrase 125 U/kg, PSB 12379 50 mg/kg, rhCD73 2 mg/kg
Procedure: (§1) In one set of studies, wild-type mice were randomly assigned into the following groups: trauma/sham shock (T/SS) receiving vehicle (saline), trauma/hemorrhagic shock (T/HS) receiving vehicle (saline), T/HS receiving POM1 (5 mg/kg), T/HS receiving apyrase (125 U/kg), T/HS receiving PSB 12379 (50 mg/kg), and T/HS receiving rhCD73 (2 mg/kg). In addition, in another group of studies, CD39^−/−, CD73^−/−, A2BAR^−/− and wild-type type mice were subjected to T/SS or T/HS. Some CD39^−/− and CD73^−/− were pretreated with NECA (0.0025 mg/kg). In pharmacological experiments, mice were pretreated intraperitoneally (30 min before T/SS or T/HS) with various agents.
(§2) The mice were given anesthesia using 1% isoflurane and their rectal temperature was maintained between 36.5 and 37.5° C. using a feedback-controlled homeothermic blanket heating system (Sumno-suite, Kent Scientific). Hemorrhagic shock was induced using a fixed-pressure model. Initially, a midline laparotomy of 2 cm was performed on the anesthetized mice, which was later closed with a 4-0 silk suture (034902, Covetrus, USA). Following this, catheters were placed in the right and left femoral arteries for monitoring blood pressure and blood withdrawal, respectively. A sterile 1-ml syringe with a 30G needle attached to PE-10 tubing filled with 0.2 ml of 1% heparinized saline was used for blood withdrawal, and each mouse received 1U heparin. Blood pressure was monitored using a continuous blood-pressure monitoring system (Powerlab 8/30, ADInstruments, Colorado Springs, CO, USA). After 5 minutes of baseline blood pressure recording, a drug or vehicle was administered to the mice, followed by inducing shock for a period of 2.5 hours, during which the blood pressure was maintained between 28-32 mmHg by withdrawing or reinfusing the shed blood. At the end of the shock period, the mice were resuscitated with Ringer's Lactate at three times the amount of shed blood for 15 minutes (32). Three hours after resuscitation, the mice were euthanized and bronchoalveolar lavage fluid (BALF), blood, and tissue samples were collected. T/SS animals were exposed to the same procedures as other animals except for blood withdrawal (FIG. 1).
Lung, liver, kidney, and gut samples were pooled from 4 mice in the same group, homogenized, sonicated, and treated with a 1×RIPA Buffer with Protease/phosphatase inhibitor cocktail (P8340, Sigma, USA), and the resulting homogenate was centrifuged at 13.000× g for 10 minutes at 4° C. Total protein content was determined by using Qubit 4.0 Fluorometer (Thermo Fisher, USA) as per the manufacturer's instructions.
To evaluate neutrophil sequestration in the lung following T/SS or T/HS, myeloperoxidase (MPO) activity was assessed using an MPO activity kit (MAK068, Sigma, USA). The supernatant of lung lysates was assayed according to the manufacturer's instructions (32).

T/HS mice [3] = test: Plasma IL-6 and IL-10 by ELISA after trauma/hemorrhagic shock; format: in vivo; conditions: T/HS mice compared to vehicle-treated T/HS mice
Procedure: as §1, §2
IL-6 and IL-10 levels were measured in plasma samples using enzyme-linked immunosorbent assay (ELISA) kits (DY406, DY417; R&D Systems Minneapolis, USA) according to the manufacturer's instructions (32).

T/HS mice [4] = test: Lung permeability (Evans blue dye) after trauma/hemorrhagic shock; format: in vivo; conditions: wild-type T/HS mice vs vehicle; i.p. pretreatment 30 min before shock; POM1 5 mg/kg, apyrase 125 U/kg, PSB 12379 50 mg/kg, rhCD73 2 mg/kg
Procedure: as §1, §2
Mice were re-anesthetized with isoflurane 3 hours after the end of resuscitation. Evans blue dye (EBD) technique was used to determine lung permeability. EBD was administered through the tail vein, and about 1 ml of blood was withdrawn from the tail artery five minutes later. The supernatant of BALF was assayed at 620 nm spectrophotometrically. The amount of Evans blue dye in the BALF was then expressed as a proportion of the amount in the plasma. (5, 32).

T/HS mice [5] = test: Plasma AST and ALT levels (liver injury) after trauma/hemorrhagic shock; format: in vivo; conditions: for T/HS-enhanced ALT level in plasma / T/HS-enhanced AST level in plasma: wild-type T/HS mice vs vehicle, i.p. pretreatment 30 min before shock; for liver injury: T/HS mice
Procedure: as §1, §2
Plasma samples were analyzed to determine the levels of aspartate aminotransferase (AST) and alanine aminotransferase (ALT). To do this, the samples were diluted with AST (TR70121 Thermo Fisher, USA) and ALT (TR71122 Thermo Fisher, USA) reagents at a 1:10 ratio, and the resulting light signal was measured using a spectrophotometer at 340 and 405 nm (32).

CD39 deficient mice = conditions: cardiac, renal, hepatic, intestinal ischemia-reperfusion, exogenous supplementation; cited from earlier work

| Molecule | lung permeability (rat model of T/HS) | neutrophil infiltration into the lung (rat model of T/HS) | increased vascular permeability [1] | polymorphonuclear neutrophil extravasation [1] | neutrophil infiltration (lung MPO activity) (T/HS mice [2]; CD39-/- mice after T/HS) | neutrophil infiltration (lung MPO activity) (T/HS mice [2]; CD73-/- mice after T/HS) | plasma IL-6 levels (T/HS mice [3]) | plasma IL-10 levels (T/HS mice [3]) | T/HS-induced lung injury (lung permeability, EBD method) (T/HS mice [4]) | T/HS-enhanced ALT level in plasma (T/HS mice [5]) | T/HS-enhanced AST level in plasma (T/HS mice [5]) | neutrophil sequestration / infiltration in lung (MPO activity) (T/HS mice [2]) | liver injury (T/HS mice [5]) | increased ischemic organ injury (CD39 deficient mice) |
| --- | --- | --- | --- | --- | --- | --- | --- | --- | --- | --- | --- | --- | --- | --- |
| N#Cc1c(N)nc(SCC(N)=O)c(C#N)c1-c1ccc(OCC2CC2)cc1 [BAY 60-6583] | decreases | not | – | – | – | – | – | – | – | – | – | – | – | – |
| CCNC(=O)[C@H]1O[C@@H](n2cnc3c(N)ncnc32)[C@H](O)[C@@H]1O [NECA, 1-(6-Amino-9H-purin-9-yl)-1-deoxy-N-ethyl-β-D-ribofuranuronamide] | – | – | reversed | reversed | decreased | decreased | – | – | – | – | – | – | – | – |
| O=P(O)(O)CP(=O)(O)OC[C@H]1O[C@@H](n2cnc3c(NCc4ccccc4)ncnc32)[C@H](O)[C@@H]1O.[Na].[Na] [PSB 12379, N6-Benzyl-α,β-methyleneadenosine 5′-diphosphate disodium salt] | – | – | – | – | – | – | increased | reduced | increased | increased | increased | increased | – | – |
| apyrase | – | – | – | – | – | – | lower | increased | moderated | suppressed | suppressed | moderated | decreased | reversed |
| sodium polyoxotungstate [POM1] | – | – | – | – | – | – | higher | similar | exacerbated | increased | increased | exacerbated | – | – |
| B1 | – | – | – | – | – | – | decreased | increased | decreased | suppressed | suppressed | decreased | decreased | – |
